# Results from US8679513B2, “Cosmetic use of a jasmonic acid derivative for treating the hair and the scalp” (L'Oreal, priority 2009, dated 2014).
# System: human epidermoid keratinocytes in culture (HaCaT) exposed to UV radiation
# Experiment: Evaluation of the antioxidant potential: DCFH-DA test
# Format: cell-based
# Details: HaCaT keratinocytes pretreated 24 hours; DCFH-DA 20 μM 30 minutes; 2 J/cm^2 UVA; compound used as 30% solution in water/dipropylene glycol (70/30); preliminary tests
# Experimental: Evaluation of the Antioxidant Potential: DCFH-DA Test
# The sodium salt of 3-hydroxy-2-pentylcyclopentane-acetic acid is used as a 30% solution in a water/dipropylene glycol mixture (70/30).
# In a model of human epidermoid keratinocytes in culture (HaCaT) exposed to UV radiation, the global oxidative stress effect of the said compound after oxidation of a fluorescent probe (DCFH-DA) is measured.
# The use of DCFH-DA as a marker of intracellular global oxidative stress is based on its physicochemical properties. It is a nonionic apolar molecule that is capable of diffusing across cell membranes. Once inside the cell, DCFH-DA is hydrolysed by intracellular esterases to a non-fluorescent compound: DCFH or 2,7-dichlorofluorescine. In the presence of activated oxygen species (H2O2; OH°), DCFH is rapidly oxidized to a highly fluorescent compound: DCF or 2,7-dichlorofluorescein.
# HaCaT keratinocytes pretreated with the active agents for 24 hours are rinsed with PBS+ and incubated in the presence of DCFH-DA [20 μM] for 30 minutes at 37° C. in the dark.
# After removal of the probe, the cells are exposed to 2 J/cm^2 of UVA (WG335 filter) in the presence of 1 ml/well of PBS+. The DCF fluorescence is evaluated immediately after the UVA exposure, by spectrofluorimetry (excitation 480 nm; emission 530 nm).
smiles,measurement,value
CCCCCC1C(O)CCC1CC(=O)[O-].[Na+] (stereo not shown) [sodium salt of 3-hydroxy-2-pentylcyclopentaneacetic acid],antioxidant potential / protection against oxidative stress (DCF fluorescence),antioxidant potential with protection against oxidative stress
